Measured values taken from publication PMC4732513, “Efficient one-pot synthesis, molecular docking and in silico ADME prediction of bis-(4-hydroxycoumarin-3-yl) methane derivatives as antileishmanial agents” (EXCLI Journal, 2015).
≈ marks a conversion by molar mass, not a printed value.

The molecules below were run on L. donovani promastigotes (NHOM/IN/80/DD8) (assay: In vitro antileishmanial activity (modified MTT assay)). Settings: Figure 3.
Type: cell-based, Leishmania donovani
Description: The assay for in vitro antileishmanial activity on culture of L. donovani promastigotes (NHOM/IN/80/DD8) was carried out in 96-well tissue culture plates. The promastigotes culture was maintained at 22 ^οC in modified RPMI 1640 pH 7.4 (without phenol red) with 10 % FCS medium. Drug dilutions were prepared in DMSO and appropriate concentration of each drug was used in triplicate. Plates were incubated at 22 °C for 72 h and evaluated using modified MTT assay, where the conversion of 3-(4,5-dimethylthiazol-2-yl)-2,5-diphenyltetrazolium bromide (MTT) to formazan by mitochondrial enzymes served as an indicator of cell viability and the amount of formazan produced was directly proportional to the number of metabolically active cells. Accordingly, absorbance at 492 nm represented the number of live cells. The concentration that decreased cell growth by 50 % (IC50) was determined by graphic interpolation. Pentamidine and sodium stibogluconate were used as standard drugs (Dutta et al., 2005[11]).
The assay for in vitro antileishmanial activity was carried out on cultures of L. donovani promastigotes. The concentration that decreased cell growth by 50 % (IC50) was determined by graphic interpolation and data obtained depicted in Table 3(Tab. 3).

Compound | Effect on L. donovani promastigotes (viability, morphology)
CN(C)c1ccc(C(c2c(O)c3ccccc3oc2=O)c2c(O)c3ccccc3oc2=O)cc1 [3l, 3,3'-((4-(Dimethylamino)phenyl)methylene)bis(4-hydroxy-2H-chromen-2-one)] | organisms lost its viability as seen by irregular shape morphology

Same assay, conditions: L. donovani promastigotes, 72 h at 22 °C, modified MTT, graphic interpolation

Compound | IC50 (concentration that decreased cell growth by 50 %) [µg/mL]
COc1ccc(C(c2c(O)c3ccccc3oc2=O)c2c(O)c3ccccc3oc2=O)c(OC)c1 [3g] | 157.5 (≈ 333 µM)
O.O.O.O.O.O.O.O.O.O=C([O-])[C@@H]1[O][Sb](=[O])([O][Sb]2(=[O])[O][C@H]([C@H](O)CO)[C@H](O)[C@H](C(=O)[O-])[O]2)[O][C@H]([C@H](O)CO)[C@@H]1O.[Na+].[Na+].[Na+] (stereo partly drawn) [Sodium stibogluconate, sodium stibogluconate, reference compound] | 490

Same assay, conditions: Leishmania donovani, 72 h, read-out: IC50 (concentration that decreased cell growth by 50 %)

Compound | IC50 [µg/mL]
O=c1oc2ccccc2c(O)c1C(c1ccccc1)c1c(O)c2ccccc2oc1=O [3a, 3,3'-(Phenylmethylene)bis(4-hydroxy-2H-chromen-2-one)] | 155 (≈ 376 µM)
O=c1oc2ccccc2c(O)c1C(c1ccc(Cl)cc1)c1c(O)c2ccccc2oc1=O [3b, 3,3'-((4-Chlorophenyl)methylene)bis(4-hydroxy-2H-chromen-2-one)] | 312 (≈ 699 µM)
O=c1oc2ccccc2c(O)c1C(c1c(Cl)cccc1Cl)c1c(O)c2ccccc2oc1=O [3c, 3,3'-((2,6-Dichlorophenyl)methylene)bis(4-hydroxy-2H-chromen-2-one)] | 320 (≈ 665 µM)
O=c1oc2ccccc2c(O)c1C(c1ccc(F)cc1)c1c(O)c2ccccc2oc1=O [3d, 3,3'-((4-Fluorophenyl)methylene)bis(4-hydroxy-2H-chromen-2-one)] | 295 (≈ 685 µM)
COc1ccc(C(c2c(O)c3ccccc3oc2=O)c2c(O)c3ccccc3oc2=O)cc1 [3e, 3,3'-((4-Methoxyphenyl)methylene)bis(4-hydroxy-2H-chromen-2-one)] | 218 (≈ 492 µM)
COc1ccc(C(c2c(O)c3ccccc3oc2=O)c2c(O)c3ccccc3oc2=O)cc1OC [3f, 3,3'-((3,4-Dimethoxyphenyl)methylene)-bis(4-hydroxy-2H-chromen-2-one)] | 275 (≈ 582 µM)
COc1ccc(OC)c(C(c2c(O)c3ccccc3oc2=O)c2c(O)c3ccccc3oc2=O)c1 [3h, 3,3'-((2,5-Dimethoxyphenyl)methylene)bis(4-hydroxy-2H-chromen-2-one)] | 198 (≈ 418 µM)
COc1cc(C(c2c(O)c3ccccc3oc2=O)c2c(O)c3ccccc3oc2=O)cc(OC)c1OC [3i, 3,3'-((3,4,5-Trimethoxyphenyl)methylene)bis(4-hydroxy-2H-chromen-2-one)] | 262 (≈ 522 µM)
COc1cc(C(c2c(O)c3ccccc3oc2=O)c2c(O)c3ccccc3oc2=O)ccc1O [3j, 3,3'-((4-Hydroxy-3-methoxyphenyl)methylene)bis(4-hydroxy-2H-chromen-2-one)] | 198 (≈ 431 µM)
N#Cc1ccc(C(c2c(O)c3ccccc3oc2=O)c2c(O)c3ccccc3oc2=O)cc1 [3k, 3,3'-((4-Cyanophenyl)methylene)bis(4-hydroxy-2H-chromen-2-one)] | 225 (≈ 514 µM)
CN(C)c1ccc(C(c2c(O)c3ccccc3oc2=O)c2c(O)c3ccccc3oc2=O)cc1 [3l, 3,3'-((4-(Dimethylamino)phenyl)methylene)bis(4-hydroxy-2H-chromen-2-one)] | 150 (≈ 329 µM)

Same assay, conditions: Leishmania donovani; L. donovani promastigotes, 72 h at 22 °C, modified MTT, graphic interpolation; read-out: IC50 (concentration that decreased cell growth by 50 %)

IC50 [µg/mL] | Compound
5.5 (≈ 16.2 µM) | N=C(N)c1ccc(OCCCCCOc2ccc(C(=N)N)cc2)cc1 [Pentamidine, pentamidine, reference compound]
